The target of test [1] is T1, hCB1R (Homo sapiens, UniProt P21554). Description: Functional activity (agonism), TRUPATH assay of Gαiβ3γ9 protein activation. The note with it: for Emax: mean ± SEM, n >= 3, NA = no observable agonism at concentrations up to 31.6 μM. Format: cell-based.
In test [2] the target is T2, hCB2R (Homo sapiens, UniProt P34972). The test is described as above. Format: cell-based. The note with it: for Emax: mean ± SEM, n >= 3.
Test [3] concerns the target T1, hCB1R. Description: Binding affinity at human cannabinoid receptor 1.
For test [4], the target named is T2, hCB2R. The test can be described thus: Binding affinity at human cannabinoid receptor 2. The settings on record: for CB1/CB2: ratio of Ki hCB1R / hCB2R.
Test [5] has as its target T2, hCB2R. The test can be described thus: Stimulation of [35S]GTPγS binding (native G protein activation). In kind it is biochemical.

Entries after “also recorded” stand apart in the source; their conditions may differ.

T2 sequence (P34972 whole entry): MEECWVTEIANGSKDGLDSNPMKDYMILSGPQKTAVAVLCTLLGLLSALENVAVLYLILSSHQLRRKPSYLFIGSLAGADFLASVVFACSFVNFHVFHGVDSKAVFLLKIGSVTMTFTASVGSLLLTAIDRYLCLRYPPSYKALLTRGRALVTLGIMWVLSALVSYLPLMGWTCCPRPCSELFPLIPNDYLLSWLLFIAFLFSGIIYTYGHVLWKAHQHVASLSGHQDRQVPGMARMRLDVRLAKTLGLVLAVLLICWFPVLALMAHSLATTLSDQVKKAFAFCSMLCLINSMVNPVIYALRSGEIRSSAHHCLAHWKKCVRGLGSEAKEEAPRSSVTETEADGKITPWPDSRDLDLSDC
T1 sequence (P21554 whole entry): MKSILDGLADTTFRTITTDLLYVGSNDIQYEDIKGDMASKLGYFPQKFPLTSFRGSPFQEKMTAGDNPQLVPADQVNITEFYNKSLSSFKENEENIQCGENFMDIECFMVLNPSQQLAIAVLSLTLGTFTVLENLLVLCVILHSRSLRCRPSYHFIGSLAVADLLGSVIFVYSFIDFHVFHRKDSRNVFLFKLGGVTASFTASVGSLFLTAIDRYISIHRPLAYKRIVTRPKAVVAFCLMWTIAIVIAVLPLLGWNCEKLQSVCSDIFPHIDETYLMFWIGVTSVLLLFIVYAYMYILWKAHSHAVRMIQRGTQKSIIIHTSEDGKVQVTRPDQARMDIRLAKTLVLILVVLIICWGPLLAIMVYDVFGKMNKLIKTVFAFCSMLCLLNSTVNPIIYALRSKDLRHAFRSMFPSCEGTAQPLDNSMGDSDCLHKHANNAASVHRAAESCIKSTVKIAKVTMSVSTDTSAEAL

`C=C(C)[C@@H]1CCC(C)=C[C@H]1c1c(O)cc(CCCCC)cc1O` [CBD, cannabidiol, reference compound]: the “agonism / efficacy (in words)” value in test [1] (hCB1R) and in test [2] (hCB2R) was “no efficacy” each time.

Turning to `CCCCCc1cc(O)c2c(c1)OC(C)(C)c1ccc(C)cc1-2` [CBN, cannabinol, reference compound], the Ki in test [3] (Ki (nM), hCB1R) was 240 nM; in test [3] (pKi, hCB1R, one site, FIG. 5), 631 nM; in test [4] it was 138 nM. In test [4], the CB1/CB2 is given as 1.7.

For `CCCCCCC(C)(C)c1cc(O)c2c(c1)OC(C)(C)c1ccc(C)c(CO)c1-2` [axCBN-3], the Ki in test [3] (Ki (nM), hCB1R) is 0.661 nM; in test [3] (pKiHi (high affinity site), hCB1R, two site binding model, FIG. 5) it was 0.398 nM; in test [4], 0.933 nM. The “affinity, fold higher than CBN” value in test [3] (hCB1R) is “approximately 360 fold”; in test [4] (hCB2R) it was around 134 fold. The “affinity (in words)” value in test [3] (hCB1R / CB1 receptor) and in test [4] (hCB2R / CB2 receptor) was “sub-nanomolar; also recorded: picomolar” in each case. The “affinity, fold higher than CBN-DMH reported by Rhee, et al.” value in test [3] (hCB1R and hCB2R, comparator value from literature) is recorded as 5-10 fold. Besides, in test [3] (hCB1R, two site binding model, FIG. 5), the “pKiLo (low affinity site)” value was 7.3. Further, the CB1/CB2 in test [4] worked out at 0.7. The EC50 in test [1] was 26.3 nM; in test [2], 3.47 nM. For the same molecule, the Emax in test [1] (hCB1R) amounted to 0.0807 ± 0.0141; in test [2] (hCB2R), 0.120 ± 0.0296. Moreover, in test [5] (greater at hCB2R than at hCB1R), the “potency to stimulate [35S]GTPγS binding, hCB2R versus hCB1R” value was 2 fold. Further, the “efficacy in [35S]GTPγS binding (in words)” value in test [5] (relative to CBN) is “increased efficacy over CBN”.

In the case of `CCCCCCC(C)(C)c1cc(OC(C)=O)c2c(c1)OC(C)(C)c1ccc(C)c(COC(C)=O)c1-2` [axCBN-4], the Ki in test [3] (Ki (nM), hCB1R) is 1200 nM; in test [4], 195 nM. The “selectivity for hCB2R over hCB1R” value in test [4] is given as 6.2 fold. Also, in test [4], the CB1/CB2 was determined as 6.2. Also, the EC50 in test [1] was 7080 nM; in test [2], 178 nM. For the same molecule, the Emax was found to be 0.175 ± 0.0832 in test [1] (hCB1R) and 0.120 ± 0.0294 in test [2] (hCB2R). Further, in test [5] (hCB2R), the “agonist activity (in words)” value is on record as “maintained agonist activity”.

What is called Ki is a measure of affinity in units of concentration, obtained from inhibition or displacement. A lower Ki goes with higher affinity. Usually EC50 stands for the midpoint of the concentration-response curve.

The values are drawn from patent publication US20250326733A1, “A NEW ROUTE FOR SY[…] CHIRAL CANNABINOIDS FROM COUMARINS” (University of Florida Research Foundation, Inc., priority 2021, published 2025).
